Results: patent US8247211B2, “Glycopeptide antibiotics” (American Cyanamid Company, priority 2001, dated 2012)
Values after ≈ are worked out from the molar mass of the structure shown.

Tests used:
Experiment in all cases: In vitro antibacterial evaluation: minimum inhibitory concentration (MIC), broth dilution method
Assay type in all cases: cell-based
Enterococcus sp. = details: 18 hours at 35° C.
In short: (§1)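 NCCLS M7-A2 broth dilution with Mueller-Hinton II, testing 64-0.06 μg/mL antibiotic against 5×10^5 CFU/mL inocula. Test strains include recent methicillin-, penicillin- or vancomycin-resistant clinical isolates. MIC is the lowest concentration preventing growth.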

Escherichia coli = details: 18 hours at 35° C.
In short: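 Test strains, among them recent clinical isolates carrying methicillin, penicillin and/or vancomycin resistance, were inoculated at 5×10^5 CFU/mL. A broth dilution series spanning 64-0.06 μg/mL in Muller-Hinton II […] (NCCLS M7-A2) defined the MIC as the lowest growth-inhibiting concentration.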

Staphylococcus sp. = test system: Staphylococcus sp.
In short: as §1

Streptococcus sp. = details: 18 hours at 35° C.
In short: as §1

[1] = broth dilution, inoculum 5×10^5 CFU/mL

MIC Enterococcus avium (GC 4558) (Enterococcus sp.; Enterococcus avium (GC 4558)): 2 µg/mL (≈ 1.43 µM)
MIC Enterococcus faecalis (ATCC 29212) (Enterococcus sp.; Enterococcus faecalis (ATCC 29212)): 1 µg/mL (≈ 0.713 µM)
MIC Enterococcus faecalis (GC 2242) (Enterococcus sp.; Enterococcus faecalis (GC 2242)): 2 µg/mL (≈ 1.43 µM)
MIC Enterococcus faecalis (GC 2691) (Enterococcus sp.; Enterococcus faecalis (GC 2691)): 2 µg/mL (≈ 1.43 µM)
MIC Enterococcus faecalis (GC 3059) (Enterococcus sp.; Enterococcus faecalis (GC 3059)): 1 µg/mL (≈ 0.713 µM)
MIC Enterococcus faecalis (GC 4552) (Enterococcus sp.; Enterococcus faecalis (GC 4552)): 2 µg/mL (≈ 1.43 µM)
MIC Enterococcus faecalis (GC 4553) (Enterococcus sp.; Enterococcus faecalis (GC 4553)): 2 µg/mL (≈ 1.43 µM)
MIC Enterococcus faecalis (GC 4554) (Enterococcus sp.; Enterococcus faecalis (GC 4554)): 2 µg/mL (≈ 1.43 µM)
MIC Enterococcus faecalis (GC 6189) (Enterococcus sp.; Enterococcus faecalis (GC 6189)): 1 µg/mL (≈ 0.713 µM)
MIC Enterococcus faecium (GC 2243) (Enterococcus sp.; Enterococcus faecium (GC 2243)): 2 µg/mL (≈ 1.43 µM)
MIC Enterococcus faecium (GC 4556) (Enterococcus sp.; Enterococcus faecium (GC 4556)): 1 µg/mL (≈ 0.713 µM)
MIC Enterococcus faecium (GC 4557) (Enterococcus sp.; Enterococcus faecium (GC 4557)): 2 µg/mL (≈ 1.43 µM)
MIC Enterococcus avium (GC 4558) (Enterococcus sp.; [1]): 2 µg/mL (≈ 1.43 µM)
MIC Enterococcus faecalis (ATCC 29212) (Enterococcus sp.; [1]): 1 µg/mL (≈ 0.713 µM)
MIC Enterococcus faecalis (GC 2242) (Enterococcus sp.; [1]): 2 µg/mL (≈ 1.43 µM)
MIC Enterococcus faecalis (GC 2691) (Enterococcus sp.; [1]): 2 µg/mL (≈ 1.43 µM)
MIC Enterococcus faecalis (GC 3059) (Enterococcus sp.; [1]): 1 µg/mL (≈ 0.713 µM)
MIC Enterococcus faecalis (GC 4552) (Enterococcus sp.; [1]): 2 µg/mL (≈ 1.43 µM)
MIC Enterococcus faecalis (GC 4553) (Enterococcus sp.; [1]): 2 µg/mL (≈ 1.43 µM)
MIC Enterococcus faecalis (GC 4554) (Enterococcus sp.; [1]): 2 µg/mL (≈ 1.43 µM)
MIC Enterococcus faecalis (GC 6189) (Enterococcus sp.; [1]): 1 µg/mL (≈ 0.713 µM)
MIC Enterococcus faecium (GC 2243) (Enterococcus sp.; [1]): 2 µg/mL (≈ 1.43 µM)
MIC Enterococcus faecium (GC 4556) (Enterococcus sp.; [1]): 1 µg/mL (≈ 0.713 µM)
MIC Enterococcus faecium (GC 4557) (Enterococcus sp.; [1]): 2 µg/mL (≈ 1.43 µM)
MIC Escherichia coli (ATCC 25922) (Escherichia coli; Escherichia coli (ATCC 25922)): 32 µg/mL (≈ 22.8 µM)
MIC Escherichia coli (GC 4559) (Escherichia coli; Escherichia coli (GC 4559)): 32 µg/mL (≈ 22.8 µM)
MIC Escherichia coli (GC 4560) (Escherichia coli; Escherichia coli (GC 4560)): 1 µg/mL (≈ 0.713 µM)
MIC Staphylococcus aureus (ATCC 29213) (Staphylococcus sp.; strain ATCC 29213): 1 µg/mL (≈ 0.713 µM)
MIC Staphylococcus aureus (GC 1131) (Staphylococcus sp.; strain GC 1131): 1 µg/mL (≈ 0.713 µM)
MIC Staphylococcus aureus (GC 3051) (Staphylococcus sp.; strain GC 3051): 1 µg/mL (≈ 0.713 µM)
MIC Staphylococcus aureus (GC 3053) (Staphylococcus sp.; strain GC 3053): 1 µg/mL (≈ 0.713 µM)
MIC Staphylococcus aureus (GC 4541) (Staphylococcus sp.; strain GC 4541): 1 µg/mL (≈ 0.713 µM)
MIC Staphylococcus aureus (GC 4542) (Staphylococcus sp.; strain GC 4542): 1 µg/mL (≈ 0.713 µM)
MIC Staphylococcus aureus-SMITH (GC 4543) (Staphylococcus sp.; strain GC 4543): 1 µg/mL (≈ 0.713 µM)
MIC Staphylococcus aureus (GC 4544) (Staphylococcus sp.; strain GC 4544): 1 µg/mL (≈ 0.713 µM)
MIC Staphylococcus aureus (GC 4545) (Staphylococcus sp.; strain GC 4545): 1 µg/mL (≈ 0.713 µM)
MIC Coagulase Negative Staphylococcus (GC 4547) (Staphylococcus sp.; strain GC 4547): 1 µg/mL (≈ 0.713 µM)
MIC Coagulase Negative Staphylococcus (GC 4548) (Staphylococcus sp.; strain GC 4548): 0.5 µg/mL (≈ 0.356 µM)
MIC Coagulase Negative Staphylococcus (GC 4549) (Staphylococcus sp.; strain GC 4549): 0.5 µg/mL (≈ 0.356 µM)
MIC Coagulase Negative Staphylococcus (GC 4551) (Staphylococcus sp.; strain GC 4551): 1 µg/mL (≈ 0.713 µM)
MIC Streptococcus agalactiae (GC 4564) (Streptococcus sp.; Streptococcus agalactiae (GC 4564)): 0.25 µg/mL (≈ 0.178 µM)
MIC Streptococcus pneumoniae (ATCC 6301) (Streptococcus sp.; Streptococcus pneumoniae (ATCC 6301)): <0.12 µg/mL
MIC Streptococcus pneumoniae (GC 1894) (Streptococcus sp.; Streptococcus pneumoniae (GC 1894)): <0.12 µg/mL
MIC Streptococcus pneumoniae (GC 4565) (Streptococcus sp.; Streptococcus pneumoniae (GC 4565)): <0.12 µg/mL
MIC Streptococcus pyogenes (GC 4563) (Streptococcus sp.; Streptococcus pyogenes (GC 4563)): 1 µg/mL (≈ 0.713 µM)
MIC Streptococcus agalactiae (GC 4564) (Streptococcus sp.; [1]): 0.25 µg/mL (≈ 0.178 µM)
MIC Streptococcus pneumoniae (ATCC 6301) (Streptococcus sp.; [1]): <0.12 µg/mL
MIC Streptococcus pneumoniae (GC 1894) (Streptococcus sp.; [1]): <0.12 µg/mL
MIC Streptococcus pneumoniae (GC 4565) (Streptococcus sp.; [1]): <0.12 µg/mL
MIC Streptococcus pyogenes (GC 4563) (Streptococcus sp.; [1]): 1 µg/mL (≈ 0.713 µM)
SMILES: CC(c1ccccc1)C1NC(=O)CNC(=O)C(CO)NC(=O)C(C(O)C2CNC(=N)N2C2OC(CO)C(O)C(O)C2O)NC(=O)C(C(O)C2CNC(=N)N2)NC(=O)C(Cc2ccc(OC3OC(CO)C(OC4OC5COC6(OC5C(O)C4O)C(C)CCCC6C)C(O)C3O)cc2)NC1=O (stereo not drawn) [Example 206, Cyclo[glycyl-β-methylphenylalanyl-O-[4-O-[4,6-O-(2,6-dimethylcyclohexylidene)hexopyranosyl]hexopyranosyl]tyrosyl-3-(2-iminoimidazolidin-4-yl)seryl-3-(3-hexopyranosyl-2-iminoimidazolidin-4-yl)serylseryl]]
MIC Staphylococcus haemolyticus (GC 4546) (Staphylococcus sp.; strain GC 4546): 0.5 µg/mL (≈ 0.356 µM)
